Measurements as given in publication PMC7607848 (Journal of medicinal chemistry, 2018).

Assays:
hCB1 [1] = biological target: T1, hCB1 (Homo sapiens, UniProt P21554)
[2] = system: CP55940-induced hypothermia (centrally located CB1 receptors); conditions: rodents; cited from earlier work
[3] = system: alcohol-induced liver steatosis; conditions: past studies; cited from earlier work
hCB1 [4] = biological target: T1, hCB1; assay: calcium-mobilization inverse-agonist assay in CHO-hCB1 cells; conditions: neutral antagonist or inverse agonist

T1 sequence (P21554 whole entry): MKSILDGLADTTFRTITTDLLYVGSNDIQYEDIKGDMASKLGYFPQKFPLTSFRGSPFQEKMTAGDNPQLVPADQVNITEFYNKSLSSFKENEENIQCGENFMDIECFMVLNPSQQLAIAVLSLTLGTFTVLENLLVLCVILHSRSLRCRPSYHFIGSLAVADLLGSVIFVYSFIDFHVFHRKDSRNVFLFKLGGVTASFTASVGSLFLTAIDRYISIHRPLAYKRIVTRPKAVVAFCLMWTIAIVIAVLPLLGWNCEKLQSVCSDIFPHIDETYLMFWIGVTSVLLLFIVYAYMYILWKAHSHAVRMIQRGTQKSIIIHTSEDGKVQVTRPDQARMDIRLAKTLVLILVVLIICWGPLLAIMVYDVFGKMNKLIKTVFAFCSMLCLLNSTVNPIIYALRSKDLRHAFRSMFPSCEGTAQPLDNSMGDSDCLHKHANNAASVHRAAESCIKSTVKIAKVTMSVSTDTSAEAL

## N#CC(c1ccccc1)N1CCN(c2ncnc3c2nc(-c2ccccc2Cl)n3-c2ccc(Cl)cc2)CC1 (stereo not shown) [Compound 21, {4-[8-(2-Chlorophenyl)-9-(4-chlorophenyl)-9H-purin-6-yl]-piperazin-1-yl}(phenyl)acetonitrile]
hCB1 [1]
  selectivity for hCB1 over hCB2 (binding assays): ~ 60 fold

## CCNC1(C(N)=O)CCN(c2ncnc3c2nc(-c2ccccc2Cl)n3-c2ccc(Cl)cc2)CC1 [Compound 2, otenabant]
[2]
  blocking of CP55940-induced reduction of body temperature: known to block this effect

## Cc1c(C(=O)NN2CCCCC2)nn(-c2ccc(Cl)cc2Cl)c1-c1ccc(Cl)cc1 [Compound 1, Rimonabant]
[3]
  reduction of alcoholic steatosis (AS): effective at reducing AS

## Clc1ccc(-n2c(-c3ccccc3Cl)nc3c(N4CCN(Cc5ccccc5Cl)CC4)ncnc32)cc1 [Compound 25, 6-[4-(2-Chlorobenzyl)piperazin-1-yl]-8-(2-chlorophenyl)-9-(4-chlorophenyl)-9H-purine]
hCB1 [4]
  functional mode at hCB1: inverse agonist
